Where two headings read alike, the source gives them in different places.
Legend:
[1] = biological target: T1, oxytocin receptors (OTR) (Homo sapiens, UniProt P30559); test: Competition with 125I-OTA for OTR binding, whole-cell assay in human myometrial cells; conditions: for affinity for OTR binding: FIG. 1
T1 construct: endogenous in cells; host or cells: primary human term pregnant myometrial cells (from C-section tissue, collagenase dispersion)
T1 sequence (P30559 1-389): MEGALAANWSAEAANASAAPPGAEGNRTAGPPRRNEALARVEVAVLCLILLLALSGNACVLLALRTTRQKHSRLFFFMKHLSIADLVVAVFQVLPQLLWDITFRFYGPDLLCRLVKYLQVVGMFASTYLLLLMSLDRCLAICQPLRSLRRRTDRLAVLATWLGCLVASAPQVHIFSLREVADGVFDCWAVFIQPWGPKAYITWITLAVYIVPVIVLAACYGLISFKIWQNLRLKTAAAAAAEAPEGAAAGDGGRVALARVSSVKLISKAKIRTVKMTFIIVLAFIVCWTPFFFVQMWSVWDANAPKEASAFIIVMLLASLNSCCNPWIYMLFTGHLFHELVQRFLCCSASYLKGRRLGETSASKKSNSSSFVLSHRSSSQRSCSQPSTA
Experimental: FIG. 1. […] Percent inhibition of ^125I-OTA binding in human myometrial cells.
Determination of OTR ligand binding: OTA was monoiodinated as previously described (Hinko and Soloff, 1992). The specific activity of the iodinated peptide was 2000 Ci/mmol at the time of preparation. Whole cell assays for specific OTR binding activity were performed as described previously, using increasing concentrations of [^125I]OTA (Copland et al., 1999). The concentration of cellular DNA was determined in parallel, using the Hoechst dye H 33258 and a Hoefer DyNA Quant fluorometer according to the manufacturer's instructions.
The specific binding was determined by subtracting […]. Specific binding was expressed as a percent of total binding. All points were done in triplicate.

[2] = tested on: oxytocin receptor (OTR) in human term myometrial cells; test: Oxytocin-induced intracellular calcium transients in human term myometrial cells (Fura-2, single cells); format: cell-based; conditions: 0.001 μg/ml (2.2 nM) troglitazone, 1 min before 10 nM oxytocin; FIG. 3B
Experimental: FIGS. 3A-H. Change in intracellular cytoplasmic calcium levels in human term myometrial cells in culture. Each line represents the change in calcium for a single cell. Cells were either pretreated with troglitazone for one minute and then treated with oxytocin, bombesin (BBS), or bradykinin. These three agents cause an increase in intracellular calcium and cause uterine contraction under the correct circumstance. Cells were grown in 10% FBS, DMEM, penicillin/streptomycin resulting in elevated OTR levels. Cells were then put into KRH buffer containing Fura-2. The cells take up Fura-2 allowing for detection in changes of cytoplasmic levels of calcium. Cells were then treated as described for each figure. […] There is no effect of troglitazone at this concentration upon oxytocin-stimulated calcium transients.
Cell Culture Conditions: The proper protocols were followed in obtaining human term myometrium tissue from mother's delivering via C-section. Human term pregnant myometrial cells were isolated by collagenase dispersion and were grown in media consisting of Delbecco's modified eagles media (DMEM) supplemented with 10% fetal bovine serum (FBS), and 2% penicillin/streptomycin in a humidified tissue culture incubator at 37° C. under an atmosphere of 5% CO2 and 95% air. […]

[3] = tested on: oxytocin induced uterine contractions; conditions: Thornton et al. 1999; cited from earlier work
[4] = FIG. 1, read-out: IC50, 125I-OTA binding to OTR

For `Cc1c(C)c2c(c(C)c1OC(=O)CCC(=O)O)CC[C@@](C)(CCC[C@H](C)CCC[C@H](C)CCCC(C)C)O2` [Vitamin E succinate], the “affinity for OTR binding” value [1] was “no affinity”.

In the case of `C[C@]12CC[C@@H]3c4ccc(O)cc4CC[C@H]3[C@@H]1CC[C@@H]2O` [17β-estradiol], the “affinity for OTR binding” value [1] is reported as “no affinity”.

In the case of `CCc1ccc(CCOc2ccc(CC3SC(=O)NC3=O)cc2)nc1` (centres unmarked) [pioglitazone], the IC50 [1, 4] is reported as roughly 10.6 µM.

With `Cc1c(C)c2c(c(C)c1O)CCC(C)(COc1ccc(CC3SC(=O)NC3=O)cc1)O2` (racemic) [troglitazone, ±5-[[4-[(3,4-dihydro-6-hydroxy-2,5,7,8-tetramethyl-2H-1-benzopyran-2-yl)methoxy]phenyl]methyl]-2,4-thiazolidinedione] the IC50 ([1]; FIG. 1, read-out: 50% inhibitory concentration (IC50), 125I-OTA binding to OTR) was 0.0157 µM and the “effect on oxytocin-stimulated calcium transients” value [2] was “no effect”.

Molecule `CN(CCOc1ccc(CC2SC(=O)NC2=O)cc1)c1ccccn1` (centres unmarked) [BRL49653, rosiglitazone] has an IC50 [1, 4] of roughly 10.6 µM.

In the case of `CC(=O)[C@H]1CC[C@H]2[C@@H]3CC[C@H]4CC(=O)CC[C@]4(C)[C@H]3CC[C@]12C` [5β-dihydroprogesterone], the IC50 [1, 4] is given as roughly 100 µM and the “concentration needed to inhibit oxytocin induced uterine contractions” value [3] is given as 100 µM.

From patent US7528133B1, “Use of thiazolidinediones derivatives for preventing uterine contractions in premature labour or lactation” (The Board of Regents of The University of Texas System, priority 1998, dated 2009)
